Assay results taken from ChEMBL document CHEMBL3351770, “Synthesis, antioxidant and cytoprotective evaluation of potential antiatherogenic phenolic hydrazones. A structure-activity relationship insight” (Bioorg Med Chem, 2014).

Assays:
[1] = Antioxidant activity assessed as DPPH radical scavenging activity by UV-Visible spectrophotometry; format: physicochemical
[2] = Antioxidant activity assessed as reduction in mouse CRL2181 cells-mediated human LDL oxidation by measuring TBARS level at 10 uM after 18 hrs; format: physicochemical, cell-based; parameters: scale not given: the % may be the effect or the level left
[3] = Antioxidant activity assessed as reduction in mouse CRL2181 cells-mediated human LDL oxidation by measuring TBARS level at 1 uM after 18 hrs; format: physicochemical, cell-based; settings: read-out: Activity
[4] = Cytoprotection in mouse CRL2181 cells assessed as reduction in UV-oxidized LDL-induced cytotoxicity by measuring cell viability at 10 uM after 24 hrs by MTT assay relative to untreated control; format: functional
[5] = Cytoprotection in mouse CRL2181 cells assessed as reduction in UV-oxidized LDL-induced cytotoxicity by measuring cell viability at 1 uM after 24 hrs by MTT assay relative to untreated control; format: functional
[6] = Antioxidant activity assessed as superoxide anion radical scavenging activity at 10 uM by PMS-NADH-NBT system based spectrophotometry; format: physicochemical

SMILES	IC50 [1] [µM]	Activity [2] [%]	Activity [6] [%]	inhibition at 1 µM [3] [%]	Activity [4] [%]	Activity [5] [%]
COc1cc(/C=N/Nc2nncc3ccccc23)cc(OC)c1O	28	4	–	38	66	46
O=C(N/N=C/c1ccc(O)c(O)c1)c1ccncc1	6.1	4	–	19	101	84
O=C(/C=C/c1ccc(O)c(O)c1)O[C@@H]1C[C@](O)(C(=O)O)C[C@@H](O)[C@H]1O [CHLOROGENIC ACID]	–	–	35.5	–	–	–
COc1cc(/C=N/Nc2nncc3ccccc23)cc(OC)c1OC.Cl	40.2	93	–	96	5	6
COc1cc(/C=N/NC(=O)c2ccncc2)cc(OC)c1OC	> 1000	94	–	95	4	4
O=C1CSC(=S)N1/N=C/c1ccccc1O	13.1	5	–	79	87	26
COc1cc(/C=N/N2C(=O)CSC2=S)cc(OC)c1O	11.8	5	–	59	85	53
Cl.Oc1ccc(/C=N/Nc2nncc3ccccc23)cc1O	6.7	3	–	51	72	34
COc1cc(/C=N/N(C)c2nc3ccccc3s2)cc(OC)c1O	–	3	43.3	5	110	107
COc1cc(/C=N/Nc2nc3ccccc3s2)cc(OC)c1OC	43.1	14	34	100	57	4
COc1cc(/C=N/NC(=O)c2ccncc2)cc(OC)c1O	17	7	–	48	65	34
Cc1c(C)c2c(c(C)c1O)CCC(C)(C(=O)O)O2 (stereo unspecified) [TROLOX]	20.1	33	22.2	69	76	50
COc1cc(/C=N/N2C(=O)CSC2=S)ccc1O	12.9	5	–	66	72	34
Cc1c(C)c2c(c(C)c1O)CC[C@@](C)(CCC[C@H](C)CCC[C@H](C)CCCC(C)C)O2 [ALPHA-TOCOPHEROL]	–	55	–	78	47	–
Oc1ccc(/C=N/Nc2nc3ccccc3s2)cc1O	–	7	41.7	44	57	33
COc1cc(/C=N/N(C)c2nc3ccccc3s2)cc(OC)c1OC	> 1000	82	–	84	7	7
COc1cc(/C=N/N(C)c2nc3ccccc3s2)ccc1O	26.6	9	–	20	96	96
COc1cc(/C=N/Nc2nc3ccccc3s2)cc(OC)c1O	–	3	35	36	55	39

Continued, in another order:

IC50 [1] [µM]	Activity [2] [%]	Activity [6] [%]	SMILES	inhibition at 1 µM [3] [%]	Activity [4] [%]	Activity [5] [%]
> 1000	31	–	O=C(N/N=C/c1ccccc1O)c1ccncc1 [SALINAZID]	75	24	20
26.2	5	–	COc1cc(/C=N/N(C)C(=O)OCc2ccccc2)ccc1O.Cl	58	71	41
19.9	4	–	COc1cc(/C=N/Nc2nncc3ccccc23)ccc1O.Cl	46	100	24
> 1000	104	–	O=C(N/N=C/c1ccccc1O)OCc1ccccc1	106	34	24
86	95	–	COc1cc(/C=N/NC(=O)c2ccncc2)ccc1O [FTIVAZIDE]	90	63	36
15.3	82	–	COc1cc(/C=N/NC(=O)c2ccncc2)c(O)cc1O	87	20	18
119	5	–	COc1cc(/C=N/N(C)C(=O)OCc2ccccc2)cc(OC)c1O.Cl	10	64	55
–	7	–	COc1cc(/C=N/Nc2nc3ccccc3s2)ccc1O	65	61	44
39.7	36	–	COc1cc(/C=N/NC(=O)OCc2ccccc2)ccc1O	75	73	73
–	3	36.7	COc1cc(/C=N/Nc2nncc3ccccc23)cc(O)c1O.Cl	27	97	69
> 1000	100	–	COc1cc(/C=N/NC(=O)OCc2ccccc2)cc(OC)c1OC	95	4	5
60.5	3	–	COc1cc(/C=N/NC(=O)OCc2ccccc2)cc(OC)c1O	38	69	45
13.5	6	–	COc1cc(/C=N/NC(=O)OCc2ccccc2)c(O)cc1O	74	79	43
7.3	6	–	O=C(N/N=C/c1ccc(O)c(O)c1)OCc1ccccc1	27	84	48
18.4	8	–	COc1cc(/C=N/NC(=O)c2ccncc2)cc(O)c1O	59	80	41
> 7.1	90	–	COc1cc(/C=N/N(C)C(=O)OCc2ccccc2)cc(OC)c1OC.Cl	98	6	6
6.8	7	–	COc1cc(/C=N/Nc2nc3ccccc3s2)cc(O)c1O	56	54	38
21.3	2	41.4	COc1cc(/C=N/NC(=O)OCc2ccccc2)cc(O)c1O	17	57	34
